Measurements as given in patent publication US7728131B2, “Amide derivative and medicine” (Nippon Shinyaku Co., Ltd., priority 2003, dated 2010).
pIC50: −log10 of the molar value. Where two headings read alike, the source gives them in different places.

Experiments:
[1] = system: K562 cells; assay: Cell growth inhibitory effect, K562 cells (Cell counting Kit-8, 72 hours); conditions: for IC50: Homo sapiens, K562, 72 h, read-out: K562 cells (IC50 value: μM); for Ratio (U937 cells/K562 cells): IC50 U937 cells / IC50 K562 cells;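 for all read-outs here: Read-out is formazan absorbance at 450 nm from WST-8 reduction after a 3 h color reaction, with K562 and U937 cells grown in 96-well plates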
Method: of Cell counting Kit-8 (5 mmol/l WST-8, 0.2 mmol/1 1-Methoxy PMS, 150 mmol/l NaCl) (manufactured by Dojindo) was added to each well. After reaction for color development in a CO2 incubator for 3 hours, an absorbance of formazan, generated by reduction of WST-8 was determined at 450 nm using Multi-level counter ARVOsx (manufactured by Wallac).
K562 cells and U937 cells (purchased from American Type Culture Collection) were cultured in a RPMI-1640 medium (manufactured by Sigma) containing 10% (v/v) fetal calf serum (FCS) (manufactures by Sigma) (RPMI-1640/FCS). K562 cells and U937 cells were seeded at a density of 5000 cells/100 μl/well and 4000 cells/100 μl/well in each of 96-hole-plate (manufactured by costar), respectively. The plate was incubated in a CO2 incubator overnight. […] The resulting solution was diluted 500 times in a RPMI-1640/FCS medium and then 100 μl of the diluent was added in a well. The plate was incubated in a CO2 incubator. After 72 hours, 20 μl

[2] = system: U937 cells; assay: Cell growth inhibitory effect, U937 cells (Cell counting Kit-8, 72 hours); format: cell-based; conditions: Homo sapiens, U-937, BCR-ABL negative U937 cells, WST-8 absorbance; for IC50: read-out: U937 cells (IC50 value: μM); for pIC50: continuation of Table 3, read-out: U937 cells (IC50 value: nμM)
Method: The plate was incubated in a CO2 incubator overnight. […] The plate was incubated in a CO2 incubator. After 72 hours, 20 μl

Compound | IC50 [1] [µM] | melting point | IC50 [2] [µM] | pIC50 [2] | Ratio (U937 cells/K562 cells) [1]
Cc1ccc(NC(=O)c2ccc(CN3CC[C@@H](CN(C)C)C3)c(C(F)(F)F)c2)cc1Nc1nccc(-c2cncnc2)n1.Cl [Example 81, 4-[(S)-3-(dimethylaminomethyl)pyrrolidin-1-ylmethyl]-3-trifluoromethyl-N-{4-methyl-3-[4-(5-pyrimidinyl)pyrimidin-2-ylamino]phenyl}benzamide hydrochloride] | 0.0047 | 114 to 122 °C (dec.) |  | < 4.00 | >27778
Cc1ccc(NC(=O)c2ccc(CN3C[C@@H](N(C)C)C[C@H]3C)c(C(F)(F)F)c2)cc1Nc1nccc(-c2cncnc2)n1.Cl [Example 60, (−)-4-[(2R,4S)-4-(dimethylamino)-2-methylpyrrolidin-1-ylmethyl]-3-trifluoromethyl-N-{4-methyl-3-[4-(5-pyrimidinyl)pyrimidin-2-ylamino]phenyl}benzamide hydrochloride] | 0.005 | 188 to 193 °C |  | 5.40 | 800
Cc1ccc(NC(=O)c2ccc(CN3CCN(C)C(C(N)=O)C3)c(C(F)(F)F)c2)cc1Nc1nccc(-c2cncnc2)n1.Cl (centres unmarked) [Example 50, 4-(3-carbamoyl-4-methylpiperazin-1-ylmethyl)-3-trifluoromethyl-N-{4-methyl-3-[4-(5-pyrimidinyl)pyrimidin-2-ylamino]phenyl}benzamide hydrochloride] | 0.0046 | 203 to 208 °C |  | 4.80 | 3478
CCN(CC)[C@H]1CCN(Cc2ccc(C(=O)Nc3ccc(C)c(Nc4nccc(-c5cncnc5)n4)c3)cc2C(F)(F)F)C1.Cl [Example 57, (−)-4-[(S)-3-(N,N-diethylamino)pyrrolidin-1-ylmethyl]-3-trifluoromethyl-N-{4-methyl-3-[4-(5-pyrimidinyl)pyrimidin-2-ylamino]phenyl}benzamide hydrochloride] | 0.0058 | 200 to 202 °C |  | 5.25 | 966
Cc1ccc(NC(=O)c2ccc(CN3CCNCC3)c(C(F)(F)F)c2)cc1Nc1cc(-c2cccnc2)ccn1.Cl [Example 42, 4-(1-piperazinylmethyl)-3-trifluoromethyl-N-{4-methyl-3-[4-(3-pyridyl)pyridin-2-ylamino]phenyl}benzamide hydrochloride] | 0.0068 | 190 to 195 °C (dec.) |  | 5.85 | 206
Cc1ccc(NC(=O)c2ccc(CN3CCN(C)CC3)c(Cl)c2)cc1Nc1nccc(-c2cncnc2)n1.Cl [Example 20, 3-chloro-4-(4-methylpiperazin-1-ylmethyl)-N-{4-methyl-3-[4-(5-pyrimidinyl)pyrimidin-2-ylamino]phenyl}benzamide hydrochloride] | 0.0026 | 197 to 200 °C |  | 4.54 | 11154
Cc1ccc(NC(=O)c2ccc(C=C3CCN(C)CC3)c(C(F)(F)F)c2)cc1Nc1nccc(-c2cncnc2)n1.Cl [Example 6, 4-(1-methylpiperidin-4-ylidenemethyl)-3-trifluoromethyl-N-{4-methyl-3-[4-(5-pyrimidinyl)pyrimidin-2-ylamino]phenyl}benzamide hydrochloride] | 0.0012 | 202 to 206 °C (dec.) | 4.3 |  | 3583
Cc1ccc(NC(=O)c2cc(Cl)c(CN3CC[C@H](N(C)C)C3)c(Cl)c2)cc1Nc1nccc(-c2cncnc2)n1.Cl [Example 12, (−)-3,5-dichloro-4-[(S)-3-(dimethylamino)pyrrolidin-1-ylmethyl]-N-{4-methyl-3-[4-(5-pyrimidinyl)pyrimidin-2-ylamino]phenyl}benzamide hydrochloride] | 0.0056 | 161 to 170 °C (dec.) | 4.7 |  | 839
CCN1CCN(Cc2ccc(C(=O)Nc3ccc(C)c(Nc4cc(-c5cccnc5)ccn4)c3)cc2C(F)(F)F)CC1.Cl [Example 27, 4-(4-ethylpiperazin-1-ylmethyl)-3-trifluoromethyl-N-{4-methyl-3-[4-(3-pyridyl)pyridin-2-ylamino]phenyl}benzamide hydrochloride] | 0.0025 | 230 to 235 °C (dec.) |  | 5.59 | 1040
CCN1CCN(Cc2ccc(C(=O)Nc3ccc(C)c(Nc4nccc(-c5cncc(Br)c5)n4)c3)cc2C(F)(F)F)CC1.Cl [Example 18, 4-(4-ethylpiperazin-1-ylmethyl)-3-trifluoromethyl-N-{3-[4-(5-bromopyridin-3-yl)pyrimidin-2-ylamino]-4-methylphenyl}benzamide hydrochloride] | 0.0048 | 166 to 172 °C (dec.) | 4.6 |  | 958
Cc1ccc(NC(=O)c2ccc(CN3CCC[C@H](N(C)C)C3)c(C(F)(F)F)c2)cc1Nc1nccc(-c2cncnc2)n1.Cl [Example 64, (+)-4-[(S)-3-(dimethylamino)piperidinomethyl]-3-trifluoromethyl-N-{4-methyl-3-[4-(5-pyrimidinyl)pyrimidin-2-ylamino]phenyl}benzamide hydrochloride] | 0.0043 | 195 to 198 °C |  | 5.43 | 860
Cc1ccc(NC(=O)c2ccc(CN3CCN(C)CC3)c(C(F)(F)F)c2)cc1Nc1cc(-c2cncnc2)ncn1.Cl [Example 33, 4-(1-methylpiperazin-4-ylmethyl)-3-trifluoromethyl-N-{4-methyl-3-[6-(5-pyrimidinyl)pyrimidin-4-ylamino]phenyl}benzamide hydrochloride] | 0.0084 | 203 to 207 °C (dec.) |  | 4.96 | 1310
Cc1ccc(NC(=O)c2ccc(CN3CC[C@H](CN(C)C)C3)c(C(F)(F)F)c2)cc1Nc1nccc(-c2cncnc2)n1.Cl [Example 79, 4-[(R)-3-(dimethylaminomethyl)pyrrolidin-1-ylmethyl]-3-trifluoromethyl-N-{4-methyl-3-[4-(5-pyrimidinyl)pyrimidin-2-ylamino]phenyl}benzamide hydrochloride] | 0.0059 | 114 to 122 °C (dec.) |  | 4.70 | 4348

Further molecules by falling IC50 [1], results first:

IC50 [1] [µM] | melting point | IC50 [2] [µM] | pIC50 [2] | Compound | Ratio (U937 cells/K562 cells) [1]
0.0096 | 142 to 152 °C (dec.) |  | 4.80 | Cc1ccc(NC(=O)c2ccc(CN3CC(CN(C)C)C3)c(C(F)(F)F)c2)cc1Nc1nccc(-c2cncnc2)n1.Cl [Example 54, 4-[3-(dimethylaminomethyl)azetidin-1-ylmethyl]-3-trifluoromethyl-N-{4-methyl-3-[4-(5-pyrimidinyl)pyrimidin-2-ylamino]phenyl}benzamide hydrochloride] | 1667
0.0079 | 168 to 169 °C (dec.) | 2 |  | COc1cc(C(=O)Nc2ccc(C)c(Nc3nccc(-c4cncc(Br)c4)n3)c2)ccc1CN1CCN(C)CC1.Cl [Example 14, 3-methoxy-4-(4-methylpiperazin-1-ylmethyl)-N-{3-[4-(5-bromopyridin-3-yl)pyrimidin-2-ylamino]-4-methylphenyl}benzamide hydrochloride] | 253
0.0077 | 164 to 174 °C (dec.) |  | 5.19 | Cc1ccc(NC(=O)c2ccc(CN3C[C@@H](C)[C@H](N(C)C)C3)c(C(F)(F)F)c2)cc1Nc1nccc(-c2cncnc2)n1.Cl [Example 67, (−)-4-[(3S,4R)-3-(dimethylamino)-4-methylpyrrolidin-1-ylmethyl]-3-trifluoromethyl-N-{4-methyl-3-[4-(5-pyrimidinyl)pyrimidin-2-ylamino]phenyl}benzamide hydrochloride] | 844
0.0047 | 168 to 171 °C |  | 5.03 | Cc1ccc(NC(=O)c2ccc(CN3CC[C@H](N4CCCC4)C3)c(C(F)(F)F)c2)cc1Nc1nccc(-c2cncnc2)n1.Cl [Example 58, (−)-4-[(S)-3-(1-pyrrolidinyl)pyrrolidin-1-ylmethyl]-3-trifluoromethyl-N-{4-methyl-3-[4-(5-pyrimidinyl)pyrimidin-2-ylamino]phenyl}benzamide hydrochloride] | 2000
0.0031 | 205 to 208 °C |  | 4.82 | Cc1ccc(NC(=O)c2ccc(CN3CCNC(C(N)=O)C3)c(C(F)(F)F)c2)cc1Nc1nccc(-c2cncnc2)n1.Cl (centres unmarked) [Example 45, 4-(3-carbamoylpiperazin-1-ylmethyl)-3-trifluoromethyl-N-{4-methyl-3-[4-(5-pyrimidinyl)pyrimidin-2-ylamino]phenyl}benzamide hydrochloride] | 4839
0.0028 | 264 °C (dec.) | 15 |  | Cc1ccc(NC(=O)c2ccc(CN3CCN(C)CC3)c(C(F)F)c2)cc1Nc1nccc(-c2cncnc2)n1.Cl [Example 2, 3-difluoromethyl-4-(4-methylpiperazin-1-ylmethyl)-N-{4-methyl-3-[4-(5-pyrimidinyl)pyrimidin-2-ylamino]phenyl}benzamide hydrochloride] | 5357
0.0021 | ≥ 275 °C | 8.1 |  | Cc1ccc(NC(=O)c2ccc(OC3CCN(C)CC3)c(C(F)(F)F)c2)cc1Nc1nccc(-c2cncnc2)n1.Cl [Example 10, 4-(1-methylpiperidin-4-yloxy)-3-trifluoromethyl-N-{4-methyl-3-[4-(5-pyrimidinyl)pyrimidin-2-ylamino]phenyl}benzamide hydrochloride] | 3857
